Laboratory results: PubChem BioAssay (NCI)
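The compound was tested at five concentrations on cells cultured in 96-well plates, with a 48-hour exposure period. TGI: concentration producing complete growth inhibition.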

Columns and labels:
Test in all cases: NCI-60 cell line screen, 48 h
U251 CNS = test system: U251 CNS
MDA-MB-435 = test system: MDA-MB-435
CCRF-CEM leukemia = test system: CCRF-CEM leukemia
NCI/ADR-RES ovarian = test system: NCI/ADR-RES ovarian
IGROV1 ovarian = test system: IGROV1 ovarian
A549 NSCLC = test system: A549 NSCLC
K-562 leukemia = test system: K-562 leukemia
HCT-116 colon = test system: HCT-116 colon
HOP-92 NSCLC = test system: HOP-92 NSCLC
RXF 393 renal = test system: RXF 393 renal

SMILES	TGI (U251 CNS)	TGI (MDA-MB-435)	TGI (CCRF-CEM leukemia)	TGI (NCI/ADR-RES ovarian)	TGI (IGROV1 ovarian)	TGI (A549 NSCLC)	TGI (K-562 leukemia)	TGI (HCT-116 colon)	TGI (HOP-92 NSCLC)	TGI (RXF 393 renal)
CC(C)CCNC(=O)c1ccc(CNC(=O)/C=C/c2csc(-c3ccccc3)n2)cc1	96.8 µM	> 100 µM	> 100 µM	> 100 µM	> 100 µM	> 100 µM	> 100 µM	> 100 µM	> 100 µM	73.6 µM
C[N+](C)(C)C1(C(=O)[O-])CC1	> 100 µM	> 100 µM	> 100 µM	> 100 µM	> 100 µM	> 100 µM	> 100 µM	> 100 µM	> 100 µM	> 100 µM
O=C(O)CSc1nnc(CCCCCCCCc2nnc(SCC(=O)O)o2)o1	> 100 µM	> 100 µM	> 100 µM	> 100 µM	> 100 µM	> 100 µM	> 100 µM	> 100 µM	> 100 µM	> 100 µM
O=C(N/N=C/C=C/c1ccc([N+](=O)[O-])o1)c1ccc(Br)s1	> 100 µM	83.6 µM	> 100 µM	57.4 µM	16.4 µM	> 100 µM	> 100 µM	13.3 µM	25.7 µM	30.9 µM
